# From PubChem BioAssay (NCI)
# “And” between values parts separate entries of the source, which are not always exact repeats. Equal values may be shown once.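 The compound was tested at five concentrations on cells cultured in 96-well plates, with a 48-hour exposure period. GI50 = concentration required for 50% inhibition of growth. TGI: total growth inhibition.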
# Legend:
# Experiment in all cases: NCI anticancer screen, dose series, 48 h
# LOX IMVI melanoma = tested on: LOX IMVI melanoma
# M14 melanoma = tested on: M14 melanoma
# SK-MEL-5 melanoma = tested on: SK-MEL-5 melanoma
# U251 CNS = tested on: U251 CNS
# DLD-1 colon = tested on: DLD-1 colon
# K-562 leukemia = tested on: K-562 leukemia
# 786-0 renal = tested on: 786-0 renal
# HOP-62 NSCLC = tested on: HOP-62 NSCLC
# RXF 393 renal = tested on: RXF 393 renal
# HL-60(TB) leukemia = tested on: HL-60(TB) leukemia
# SK-MEL-2 melanoma = tested on: SK-MEL-2 melanoma
# SF-295 CNS = tested on: SF-295 CNS
# HCC-2998 colon = tested on: HCC-2998 colon
# A549 NSCLC = tested on: A549 NSCLC
# MALME-3M melanoma = tested on: MALME-3M melanoma
# TK-10 renal = tested on: TK-10 renal
# EKVX NSCLC = tested on: EKVX NSCLC
# SNB-75 CNS = tested on: SNB-75 CNS
# OVCAR-8 ovarian = tested on: OVCAR-8 ovarian
# KM12 colon = tested on: KM12 colon
# OVCAR-5 ovarian = tested on: OVCAR-5 ovarian
# UO-31 renal = tested on: UO-31 renal
# SF-268 CNS = tested on: SF-268 CNS
# CAKI-1 renal = tested on: CAKI-1 renal
# NCI-H23 lung = tested on: NCI-H23 lung
# SW-620 colon = tested on: SW-620 colon
# SK-MEL-28 melanoma = tested on: SK-MEL-28 melanoma
# NCI-H522 lung = tested on: NCI-H522 lung
# HOP-18 NSCLC = tested on: HOP-18 NSCLC
# NCI-H226 lung = tested on: NCI-H226 lung
# UACC-62 melanoma = tested on: UACC-62 melanoma
# HCT-116 colon = tested on: HCT-116 colon
# IGROV1 ovarian = tested on: IGROV1 ovarian
# SNB-19 CNS = tested on: SNB-19 CNS
# ACHN renal = tested on: ACHN renal
# HCT-15 colon = tested on: HCT-15 colon
# SK-OV-3 ovarian = tested on: SK-OV-3 ovarian
# COLO 205 colon = tested on: COLO 205 colon
# HOP-92 NSCLC = tested on: HOP-92 NSCLC
# UACC-257 melanoma = tested on: UACC-257 melanoma
# OVCAR-3 ovarian = tested on: OVCAR-3 ovarian
# CCRF-CEM leukemia = tested on: CCRF-CEM leukemia
# SF-539 CNS = tested on: SF-539 CNS
# KM20L2 colon = tested on: KM20L2 colon
smiles,measurement,setting,value
CC(C)[O-].CC(C)[O-].[O-]c1cccc2cccnc12.[O-]c1cccc2cccnc12.[Ti+4],GI50,LOX IMVI melanoma,74 µM
same,TGI,LOX IMVI melanoma,> 100 µM
same,GI50,M14 melanoma,9.68 µM and 10.8 µM
same,TGI,M14 melanoma,> 100 µM
same,GI50,SK-MEL-5 melanoma,25.2 µM
same,GI50,U251 CNS,> 100 µM
same,TGI,U251 CNS,> 100 µM
same,GI50,DLD-1 colon,4.97 µM
same,GI50,K-562 leukemia,3.04 µM and 3.37 µM
same,TGI,K-562 leukemia,> 100 µM
same,GI50,786-0 renal,3.38 µM and 4.05 µM
same,TGI,786-0 renal,20.9 µM
same,GI50,HOP-62 NSCLC,> 100 µM
same,TGI,HOP-62 NSCLC,> 100 µM
same,GI50,RXF 393 renal,2.42 µM
same,TGI,RXF 393 renal,6.04 µM
same,GI50,HL-60(TB) leukemia,2.24 µM
same,GI50,SK-MEL-2 melanoma,31.3 µM
same,TGI,SK-MEL-2 melanoma,> 100 µM
same,GI50,SF-295 CNS,> 100 µM
same,TGI,SF-295 CNS,> 100 µM
same,GI50,HCC-2998 colon,50.4 µM
same,TGI,HCC-2998 colon,> 100 µM
same,GI50,A549 NSCLC,41.7 µM
same,TGI,A549 NSCLC,> 100 µM
same,GI50,MALME-3M melanoma,25.7 µM
same,TGI,MALME-3M melanoma,> 100 µM
same,GI50,TK-10 renal,34.4 µM
same,TGI,TK-10 renal,> 100 µM
same,GI50,EKVX NSCLC,> 100 µM
same,TGI,EKVX NSCLC,> 100 µM
same,GI50,SNB-75 CNS,> 100 µM
same,TGI,SNB-75 CNS,> 100 µM
same,TGI,OVCAR-8 ovarian,> 100 µM
same,GI50,KM12 colon,21 µM
same,TGI,KM12 colon,50 µM
same,GI50,OVCAR-5 ovarian,51.1 µM
same,TGI,OVCAR-5 ovarian,> 100 µM
same,GI50,UO-31 renal,> 100 µM
same,TGI,UO-31 renal,> 100 µM
same,GI50,SF-268 CNS,6.4 µM and 51.1 µM
same,TGI,SF-268 CNS,> 100 µM
same,TGI,CAKI-1 renal,> 100 µM
same,GI50,NCI-H23 lung,> 100 µM
same,TGI,NCI-H23 lung,> 100 µM
same,GI50,SW-620 colon,6.47 µM and 5.89 µM
same,TGI,SW-620 colon,> 100 µM
same,GI50,SK-MEL-28 melanoma,56.5 µM
same,TGI,SK-MEL-28 melanoma,> 100 µM
same,GI50,NCI-H522 lung,1.41 µM and 1.93 µM
same,TGI,NCI-H522 lung,2.84 µM and 5.68 µM
same,TGI,HOP-18 NSCLC,> 100 µM
same,GI50,NCI-H226 lung,> 100 µM
same,TGI,NCI-H226 lung,> 100 µM
same,GI50,UACC-62 melanoma,28.5 µM
same,TGI,UACC-62 melanoma,> 100 µM
same,GI50,HCT-116 colon,3.24 µM and 3.87 µM
same,TGI,HCT-116 colon,> 100 µM
same,TGI,IGROV1 ovarian,> 100 µM
same,GI50,SNB-19 CNS,61.6 µM
same,TGI,SNB-19 CNS,> 100 µM
same,GI50,ACHN renal,88.6 µM
same,TGI,ACHN renal,> 100 µM
same,GI50,HCT-15 colon,4.79 µM and 8.05 µM
same,TGI,HCT-15 colon,> 100 µM
same,GI50,SK-OV-3 ovarian,> 100 µM
same,TGI,SK-OV-3 ovarian,> 100 µM
same,GI50,COLO 205 colon,24.7 µM
same,TGI,COLO 205 colon,> 100 µM
same,GI50,HOP-92 NSCLC,14.3 µM
same,TGI,HOP-92 NSCLC,50.3 µM
same,TGI,UACC-257 melanoma,> 100 µM
same,GI50,OVCAR-3 ovarian,15.4 µM
same,TGI,OVCAR-3 ovarian,> 100 µM
same,GI50,CCRF-CEM leukemia,1.77 µM and 3.32 µM
same,TGI,CCRF-CEM leukemia,> 100 µM
same,GI50,SF-539 CNS,97 µM
same,TGI,SF-539 CNS,> 100 µM
same,TGI,KM20L2 colon,> 100 µM
